What all share (format): cell-based, human
Data set [1] has as its system NHFs. The data set is described as follows: Rod aggregation kinetics in 2.2 mm troughs after removal of drug (time-lapse). Particulars: 100 μM Y-27632 initially, removed at 1.5 hrs and replaced with normal medium, FIG. 11. As for the experimental part: Excess medium was aspirated from the wells and 200 μL of a single cell suspension was pipetted into the aggregation recess of each gel. Medium was added to the wells after a 1.5 hour incubation period wherein cells settled into the aggregation recesses and commenced the self-assembly process. Medium was exchanged every other day. […] A z-stack of images from the 4× objective with 10-50 μm between focal planes was collected at each time point using custom-designed Openlab 4.0.2 automations and images were analyzed using Volocity 3.1 (Improvision). Bright-field and fluorescent images were obtained using an Olympus IX70 microscope equipped with an AxioCam MRc digital camera. For the time-lapse experiments, medium was carefully added 20-30 minutes post seeding, before the devices were transferred to the time lapse microscope. Measurements of morphological changes were performed with ImageJ data analysis software. The length of a rod was the length of a line drawn from end to end of the structure (long-axis length). The core circumference of tori was measured as a continuous circumferential line located at the estimated midpoint of the perpendicular width of the toroid. Gels with trough features 2.2 mm in length were then seeded with NHFs or with NHFs treated initially with 100 μM Y-27632 and imaged every 10 minutes. At 1.5 hrs, the Y-27632 solution was removed and replaced with normal medium. […]

Data set [2] has as its system NHF cells. Kind of data set: Rod length change kinetics of NHF aggregates in 2.2 mm trough features. Particulars: NHF cells treated with 50 μM and 200 μM Y-27632, 2.2 mm troughs, FIG. 10. The text has this:
Micro-molded, non-adhesive, cell aggregation devices, each having a plurality of cell aggregation recesses in the shape of either troughs or tori were made following the method described in Example 1. Agarose was employed as the hydrogel material and the cell aggregation recess features were as follows. Troughs were 400 μm wide with bottoms rounded with 200 μm radii. There were 21 rows of troughs of increasing length per gel. Each row had 11 troughs, two of which were 400 μm long, then one each of 600 μm through 1800 μm increasing at 200 μm lengths, then two 2200 μm troughs. The 2200 μm troughs were used for all experiments except those for FIG. 9c, which presents data from all trough lengths. […] A z-stack of images from the 4× objective with 10-50 μm between focal planes was collected at each time point using custom-designed Openlab 4.0.2 automations and images were analyzed using Volocity 3.1 (Improvision). […] The core circumference of tori was measured as a continuous circumferential line located at the estimated midpoint of the perpendicular width of the toroid. […] Next, aggregation devices with trough features 2.2 mm in length were made as described in previous examples and seeded with NHF cells, NHF cells in serum-free medium, NHF cells treated with 50 μM of Y-27632 and NHF cells treated with 200 μM of Y-27632 and the lengths of resulting rod shaped aggregates were measured. […]

In data set [3] the test system is NHFs. The data set is described as follows: Toroid stability of NHFs in micro-molded agarose toroidal aggregation devices. The text has this:
Micro-molded, non-adhesive, cell aggregation devices, each having a plurality of cell aggregation recesses in the shape of either troughs or tori were made following the method described in Example 1. Agarose was employed as the hydrogel material and the cell aggregation recess features were as follows. Troughs were 400 μm wide with bottoms rounded with 200 μm radii. There were 21 rows of troughs of increasing length per gel. Each row had 11 troughs, two of which were 400 μm long, then one each of 600 μm through 1800 μm increasing at 200 μm lengths, then two 2200 μm troughs. The 2200 μm troughs were used for all experiments except those for FIG. 9c, which presents data from all trough lengths. […] A z-stack of images from the 4× objective with 10-50 μm between focal planes was collected at each time point using custom-designed Openlab 4.0.2 automations and images were analyzed using Volocity 3.1 (Improvision). […] The core circumference of tori was measured as a continuous circumferential line located at the estimated midpoint of the perpendicular width of the toroid. Micro-molded agarose toroidal aggregation devices (n=208) made as described in Example 9 were seeded with untreated NHFs and NHFs treated with 100 μM of the cell contraction inhibitor Y-27632 (Calbiochem (EMD Biosciences, Inc.), San Diego, Calif.) and the number of stable toroids with patent centers was measured over time. […]

In data set [4] the test system is NHFs. Kind of data set: NHF aggregation in honeycomb-structured cell aggregation devices. Particulars: NHFs maintained in Y-27632 solution, day 5; untreated NHFs contracted up and off of pegs within 1 day. The procedure:
In this experiment, cell aggregation devices were formed from agarose gels as described above, but agarose gels were micromolded with honeycomb-shaped recesses instead of troughs or a tori. The honeycomb-shaped recesses are essentially overlapping, tori-shaped recesses: There are 13 pegs (1 central, 6 concentric around the central peg and 6 outer pegs at 0°, 60°, 120°, 180°, 240°, 300° and 360°) within a network of recesses […] and with bottoms rounded with 200 μm radii. Time lapse microscopy was again used to monitor self-assembly of the NHF cells alone, the H35 cells alone and 50:50 mixtures of NHF cells and H35 cells as described above. The results are shown in FIG. 8, at time 0 (top row), 10 hours post-seeding (middle row) and 20 hours post-seeding (bottom row) with the aggregated NHF cells in column A, the aggregated H35 cells in column B and the aggregated 1:1 mixture of NHF and H35 cells in column C. The aggregated NHF cells quickly thinned, became taught and popped off the outer pegs of the honeycomb shaped substrate. Once freed from the substrate, the honeycomb-shaped aggregates of NHF cells contracted in a uniform manner but maintained its shape. The aggregated H35 cells thinned more slowly, maintaining contact with the outer pegs and staying within the molds. […]

Data set [5] deals with NHFs. Kind of data set: Viability staining of treated NHF honeycombs. As to conditions: NHF honeycombs maintained in Y-27632 solution, day 5. The procedure:
NHF cells alone, H35 cells alone, and 50:50 mixtures of NHF and H35 cells were seeded into the trough aggregation devices and the tori aggregation devices as described in Example 2 and allowed to aggregate. Briefly, NHF cells derived from neonatal foreskins and H35 rat hepatoma cells were expanded in DMEM supplemented with 10% fetal bovine serum (FBS) and 1% penicillin/streptomycin solution. NHF cells were incubated in a 10% CO2 atmosphere and H35 cells were incubated in 5% CO2. The mixture experiments were a 50:50 mix of both cell types and were maintained in a 5% CO2 atmosphere. The cells were stained with fluorescent dyes (NHF cells with CellTracker Red CMTPX and H35 cells with CellTracker Green CMFDA from Invitrogen) to allow their aggregation in the mixed populations to be followed and their aggregated position visualized. Cells used in experiments were between passage 3 and passage 9. Cell viability was determined using the LIVE/DEAD Viability/Cytotoxicity Kit (Invitrogen) in accordance with the manufacturer's instructions.
Lastly, NHFs were seeded onto honeycomb-structured cell aggregation devices made as described in Example 9B and maintained in Y-27632 solution.

Turning to `C[C@@H](N)[C@H]1CC[C@H](C(=O)Nc2ccncc2)CC1` [Y-27632], the “aggregation kinetics after removal of the drug” value in data set [1] is “progressing with similar kinetics to those of untreated NHFs”. Also, the “effect on length change kinetics of rod shaped aggregates” value in data set [2] was “dramatically slowed length change kinetics in rods”. Moreover, the “treated NHFs still having patent centers (stable toroids)” value is reported as 90% in data set [3] (100 μM Y-27632, day 1, n=104, all untreated NHFs had progressed to spheroids) and 5% in data set [3] (100 μM Y-27632, day 2, n=104). For the same compound, the “maintenance of honeycomb structure” value in data set [4] is given as “remained intact in the honeycomb-shaped recesses at day 5”. Also, the “cell viability (viability staining)” value in data set [5] is “majority of the cells were living at day 5”.
